Laboratory results taken from patent US11370757B2, “Photocleavable nitroindoline-based crosslinkers” (priority 2017, dated 2022).
*1 amine or outer side, *2 acyl side, *3 side chain or, on linkers, in order; H or OH if unused. Where a SMILES comes first, the peptide text is derived from it. [ ]: non-standard residue; d: D form. X1 = O=C(c1cc2c(c([N+](=O)[O-])c1)N([*:1])CC2)[*:2]; Hyp = O=C(O)[C@@H]1C[C@@H](O)CN1

Legend:
[1] = type: physicochemical
Protocol: Circular Dichroism (CD) of peptide 1 and thermal stability measurements. Far-UV CD studies were conducted to study the secondary structure of peptide 1. The measurements were carried out using a 20 μM solution of the lyophilized peptide 1 in 15 mM NaCl and 10 mM Na/K buffer (pH 6.8). The sample was placed into a quartz cuvette of 1 mm path length (Jasco) and heated from 20° C.-70° C. to characterize its thermal stability. At each temperature, the sample was equilibrated for 4 min prior measurement of the spectrum. CD scans were performed at a range from 196-240 nm with three accumulations of data at each temperature to improve the S/N ratio. Each spectrum underwent 11 point Savitzky-Golay smoothing to minimize high frequency noise. The experimentally estimated ellipticities (Gobs) were converted to mean molar ellipticity [θ] using the formula: [θ]=(θobs)/ncl where l is the path length of the cuvette; c is the concentration of the peptide, and n is the number of […] in the peptide.

[2] = test system: human mesenchymal stem cells; type: cell-based
Text: Culture and passaging of human Mesenchymal Stem Cells (MSC). Human adipose derived mesenchymal stem cells were obtained from Lonza at passage=3 (Lonza, Allendale, N.J., USA) and cultured according to manufacturer's recommendations. Certification was obtained and kept in file to ensure that the purchased human MSC (Lonza) was verified to be of the correct lineage and uncontaminated by other cell types or organisms. For the human MSC culture, a complete growth medium (Lonza) specifically MSCGM human Mesenchymal Stem Cell (HMSC) growth BulletKit™ Medium (Lonza) was used for maintaining the mesenchymal stem cells in an undifferentiated state. This medium is referred to as complete growth medium for HMSC here onwards. Prior to cell seeding, T-75 culture flasks were coated with 0.1% gelatin (Sigma Aldrich, St. Louis, Mo., USA) and incubated (37° C., 1 h). After this, the cell suspension in complete culture medium was transferred to a gelatin coated T-75 flask and incubated for 1 h (37° C., 5% CO2 and 95% RH). Prior to cell culture, the gelatin solution used for coating of the flasks was aspirated. After 70% confluency in culture was attained, cells were trypsizined and passaged for further experiments. […] Following this, cells were seeded atop this layer and cultured for 24 hours after which they were imaged using fluorescence microscopy (Zeiss Axiovision).

[3] = Two-photon photolysis followed by fluorescence decay under a femtosecond laser at 710 nm; type: physicochemical; conditions: 710 nm femtosecond laser, 100 to 200 mW; film/gel on microscope slide; slope 2 = two-photon process
Text: Two-photon microscope. The details of the in-housed developed two-photon microscope was previously described (Acosta et al., (2014) Biomed. Opt. Express 5, 3990-4001). In summary the light source is a mode-locked Ti:Sapphire laser (Maitai H P, 690-1040 nm, 100 fs, 80 MHz, Newport, Santa Clara, Calif.). The inventors have used 710 nm light to achieve two-photon excitation of N-acyl-nitroindoline. The home-built x-y scanner (polygon, galvanometer) can achieve 30 frames/s scanning rate. The laser power at the sample site is varied by rotating a half-wave plate in front of a polarizer. The fluorescence signal from the sample are detected in three spectral channels with photomultiplier tubes (PMTs): red (570-616 nm), green (500-550 nm), and blue (417-477 nm). […]
Several spots within the sample were irradiated under the two-photon microscope using 710 nm light with varying excitation laser output powers ranging from 100 to 200 mW with increments of 25 mW. […] Therefore, as the photolysis reaction progresses, the fluorescent peptide 1 is consumed, and consequentially a decrease in average fluorescence intensity at the irradiation site is observed. For each irradiated spot, a time series of fluorescence images was recorded at every minute to track the fluorescence intensity decay throughout the photo induced reaction process (FIG. 4a-4d). […]

NC(=O)CNC(=O)[C@@H]1CCCN1C(=O)[C@@H]1C[C@@H](O)CN1C(=O)CNC(=O)[C@@H]1CCCN1C(=O)[C@@H]1CCCN1C(=O)c1cc2c(c([N+](=O)[O-])c1)N(C(=O)CNC(=O)[C@@H]1CCCN1C(=O)[C@@H]1C[C@@H](O)CN1C(=O)CNC(=O)[C@@H]1CCCN1C(=O)[C@@H]1CCCN1C(=O)c1cc3c(c([N+](=O)[O-])c1)N(C(=O)CNC(=O)[C@@H]1CCCN1C(=O)[C@@H]1C[C@@H](O)CN1C(=O)CNC(=O)[C@@H]1CCCN1C(=O)[C@@H]1CCCN1C(=O)c1cc4c(c([N+](=O)[O-])c1)N(C(=O)CNC(=O)[C@@H]1CCCN1C(=O)[C@@H]1C[C@@H](O)CN1C(=O)CNC(=O)[C@@H]1CCCN1C(=O)[C@@H]1CCCN1C(=O)c1cc5c(c([N+](=O)[O-])c1)N(C(=O)CNC(=O)[C@@H]1CCCN1C(=O)[C@@H]1C[C@@H](O)CN1C(=O)CNC(=O)[C@@H]1CCCN1C(=O)[C@@H]1CCCN1)CC5)CC4)CC3)CC2 [peptide 1] (H-PPG[Hyp]PG[X1]PPG[Hyp]PG[X1]PPG[Hyp]PG[X1]PPG[Hyp]PG[X1]PPG[Hyp]PG-NH2)
stability of the structure at physiological temperature [1]: very stable
cytotoxicity to cultured mesenchymal stem cells [2]: not cytotoxic

O=C(NCC(=O)N1CCc2cc(Br)cc([N+](=O)[O-])c21)OCC1c2ccccc2-c2ccccc21 [compound 13, N-Fmoc-glycyl-5-bromo-7-nitroindoline]
slope of the regression line in the double-log plot of reaction rate vs. laser intensity [3]: 1.996
